From patent US10829796B2, “Bacteria identification and antimicrobial susceptibility test” (priority 2015, dated 2020)

Legend:
Experiment in all cases: Antibiotic susceptibility testing (colour of media), spiked milk
Assay type in all cases: cell-based
Escherichia coli = settings: 37° C., plate configuration #3
Description: (§1) Tables 36 to 38 which follow show further examples of antibiotic susceptibility testing performed in accordance with the present invention. Table 36, antibiotic susceptibility testing of Staphylococcus aureus in Mueller Hinton and Tryptic Soy Broth at pre-incubation and at between 15-24 h. Tables 37 and 38, antimicrobial susceptibility testing of Streptococcus uberis and E. coli with the addition of gram negative specific antibiotic aztreonam. Tables 38 to 49 show further examples of antibiotic susceptibility testing and the outcomes are aligned with the described inventions.

Staphylococcus aureus = settings: T~16 h, 37° C., plate configuration #3
Description: as §1

Streptococcus uberis = settings: T~16 h, 37° C., bacteria samples 6d, plate configuration #3
Description: as §1

## Cc1onc(-c2ccccc2Cl)c1C(=O)N[C@@H]1C(=O)N2[C@@H]1SC(C)(C)[C@@H]2C(=O)O [cloxacillin]
Escherichia coli; T~16 h, bacteria samples 4c, Benzyl Penicillin or Cloxacillin 1 μg/ml
  Colour of media in each well: yellow
Escherichia coli; T~16 h, bacteria samples 4c, Benzyl Penicillin or Cloxacillin 10 μg/ml
  Colour of media in each well: yellow
Escherichia coli; T~16 h, bacteria samples 4c, Benzyl Penicillin or Cloxacillin 100 μg/ml
  Colour of media in each well: yellow
Escherichia coli; T~16 h, bacteria samples 4c, Benzyl Penicillin or Cloxacillin 1,000 μg/ml
  Colour of media in each well: yellow
Escherichia coli; T~16 h, bacteria samples 4c, Benzyl Penicillin or Cloxacillin 10,000 μg/ml
  Colour of media in each well: red
Escherichia coli; t~16 h, bacteria samples 4e, Benzyl Penicillin or Cloxacillin 1 μg/ml
  Colour of media in each well: yellow
Escherichia coli; t~16 h, bacteria samples 4e, Benzyl Penicillin or Cloxacillin 10 μg/ml
  Colour of media in each well: yellow
Escherichia coli; t~16 h, bacteria samples 4e, Benzyl Penicillin or Cloxacillin 100 μg/ml
  Colour of media in each well: yellow
Escherichia coli; t~16 h, bacteria samples 4e, Benzyl Penicillin or Cloxacillin 1,000 μg/ml
  Colour of media in each well: red
Escherichia coli; t~16 h, bacteria samples 4e, Benzyl Penicillin or Cloxacillin 10,000 μg/ml
  Colour of media in each well: red
Staphylococcus aureus; bacteria samples 5c, Benzyl Penicillin or Cloxacillin 1 μg/ml
  Colour of media in each well: red
Staphylococcus aureus; bacteria samples 5c, Benzyl Penicillin or Cloxacillin 10 μg/ml
  Colour of media in each well: red
Staphylococcus aureus; bacteria samples 5c, Benzyl Penicillin or Cloxacillin 100 μg/ml
  Colour of media in each well: red
Staphylococcus aureus; bacteria samples 5c, Benzyl Penicillin or Cloxacillin 1,000 μg/ml
  Colour of media in each well: red
Staphylococcus aureus; bacteria samples 5c, Benzyl Penicillin or Cloxacillin 10,000 μg/ml
  Colour of media in each well: red
Staphylococcus aureus; bacteria samples 5e, Benzyl Penicillin or Cloxacillin 1 μg/ml
  Colour of media in each well: red
Staphylococcus aureus; bacteria samples 5e, Benzyl Penicillin or Cloxacillin 10 μg/ml
  Colour of media in each well: red
Staphylococcus aureus; bacteria samples 5e, Benzyl Penicillin or Cloxacillin 100 μg/ml
  Colour of media in each well: red
Staphylococcus aureus; bacteria samples 5e, Benzyl Penicillin or Cloxacillin 1,000 μg/ml
  Colour of media in each well: red
Staphylococcus aureus; bacteria samples 5e, Benzyl Penicillin or Cloxacillin 10,000 μg/ml
  Colour of media in each well: red
Streptococcus uberis; Benzyl Penicillin or Cloxacillin 1 μg/ml
  Colour of media in each well: red
Streptococcus uberis; Benzyl Penicillin or Cloxacillin 10 μg/ml
  Colour of media in each well: red
Streptococcus uberis; Benzyl Penicillin or Cloxacillin 100 μg/ml
  Colour of media in each well: red
Streptococcus uberis; Benzyl Penicillin or Cloxacillin 1,000 μg/ml
  Colour of media in each well: red
Streptococcus uberis; Benzyl Penicillin or Cloxacillin 10,000 μg/ml
  Colour of media in each well: red
